Values quoted from earlier work, collected in PubChem BioAssay AID1259409 (Chemical Carcinogenesis Research Information System (CCRIS), 2018).

Test system: rodent chemically induced tumor inhibition, incidence and multiplicity
Test: CCRIS tumor inhibitor studies
Conditions: Dose [Inhibitor]: 0, Promoter: NONE USED

## C=C(C)[C@H]1CC=C(C)CC1
Carcinogen: METHYLCHOLANTHRENE, 56-49-5, 0.5 ML 1/WK FOR 1 YR BEGINNING POST CARCINOGEN TREATMENT (STUDY DURATION: 24 MO), Route [Inhibitor]: GAVAGE, Species: MOUSE, Strain/Sex: SWISS/MALE, Target Tissue: Type of Lesion: SKIN: SARCOMA AND CARCINOMA, Dose [Carcinogen]: 0.01 MG ON D 1, 7, 14 AND 21 AFTER BIRTH
  tumour outcome (control, treated, inhibition, significance): 5/13 (38%), 2/14 (14%), 63%, not calculated
Carcinogen: METHYLCHOLANTHRENE, 56-49-5, 0.5 ML 1/WK FOR 1 YR BEGINNING POST CARCINOGEN TREATMENT (STUDY DURATION: 24 MO), Route [Inhibitor]: GAVAGE, Species: MOUSE, Strain/Sex: SWISS/MALE, Target Tissue: Type of Lesion: SPLEEN: LYMPHOMA, Dose [Carcinogen]: 0.01 MG ON D 1, 7, 14 AND 21 AFTER BIRTH
  tumour outcome (control, treated, inhibition, significance): 2/13 (15%), 3/14 (21%), -40%, not calculated
Carcinogen: N-ETHYL-N-HYDROXYETHYLNITROSAMINE, 13147-25-6, 150 MG/KG/D IN CORN OIL 5 D/WK FOR 30 WK BEGINNING POST CARCINOGEN TREATMENT (STUDY DURATION: 32 WK), Route [Inhibitor]: GAVAGE, Species: RAT, Strain/Sex: F344/MALE, Target Tissue: Type of Lesion: LIVER: TUMOR, Dose [Carcinogen]: 500 PPM IN DRINKING WATER FOR 2 WK
  tumour outcome (control, treated, inhibition, significance): 26/30 (87%), 17/31 (55%), 37%, p<0.01
Carcinogen: N-NITROSOMETHYLUREA, 684-93-5, 5% IN DIET BEGINNING 1 WK POST CARCINOGEN TREATMENT AND CONTINUING FOR DURATION OF STUDY (STUDY DURATION: 23 WK), Route [Inhibitor]: ORAL, Species: RAT, Strain/Sex: WISTAR/FEMALE, Target Tissue: Type of Lesion: MAMMARY GLAND: TUMOR, Dose [Carcinogen]: 50 MG/KG ONCE
  tumour outcome (control, treated, inhibition, significance): 80%, 50%, 38%, p<0.001
Carcinogen: N-NITROSOMETHYLUREA, 684-93-5, 5% IN DIET BEGINNING 2 WK PRIOR TO CARCINOGEN TREATMENT AND CONTINUING FOR DURATION OF STUDY (STUDY DURATION: 23 WK), Route [Inhibitor]: ORAL, Species: RAT, Strain/Sex: WISTAR/FEMALE, Target Tissue: Type of Lesion: MAMMARY GLAND: TUMOR, Dose [Carcinogen]: 50 MG/KG ONCE
  tumour outcome (control, treated, inhibition, significance): 80%, 45%, 47%, p<0.001
Carcinogen: N-NITROSOMETHYLUREA, 684-93-5, 5% IN DIET FOR 2 WK PRIOR TO AND 1 WK POST CARCINOGEN TREATMENT (STUDY DURATION: 23 WK), Route [Inhibitor]: ORAL, Species: RAT, Strain/Sex: WISTAR/FEMALE, Target Tissue: Type of Lesion: MAMMARY GLAND: TUMOR, Dose [Carcinogen]: 50 MG/KG ONCE
  tumour outcome (control, treated, inhibition, significance): 80%, 74%, 8%, not significant
Carcinogen: SAFROLE, 94-59-7, 0.5 ML 1/WK FOR 1 YR BEGINNING POST CARCINOGEN TREATMENT (STUDY DURATION: 24 MO), Route [Inhibitor]: GAVAGE, Species: MOUSE, Strain/Sex: SWISS/FEMALE, Target Tissue: Type of Lesion: LUNG: PAPILLARY ADENOCARCINOMA, Dose [Carcinogen]: 0.2 MG ON D 1 AND 7 AFTER BIRTH THEN 0.4 MG ON D 14 AND 21
  tumour outcome (control, treated, inhibition, significance): 3/18 (17%), 2/19 (11%), 35%, not calculated
Carcinogen: SAFROLE, 94-59-7, 0.5 ML 1/WK FOR 1 YR BEGINNING POST CARCINOGEN TREATMENT (STUDY DURATION: 24 MO), Route [Inhibitor]: GAVAGE, Species: MOUSE, Strain/Sex: SWISS/FEMALE, Target Tissue: Type of Lesion: SKIN: SARCOMA, Dose [Carcinogen]: 0.2 MG ON D 1 AND 7 AFTER BIRTH THEN 0.4 MG ON D 14 AND 21
  tumour outcome (control, treated, inhibition, significance): 2/18 (11%), 0/19 (0%), 100%, not calculated
Carcinogen: SAFROLE, 94-59-7, 0.5 ML 1/WK FOR 1 YR BEGINNING POST CARCINOGEN TREATMENT (STUDY DURATION: 24 MO), Route [Inhibitor]: GAVAGE, Species: MOUSE, Strain/Sex: SWISS/MALE, Target Tissue: Type of Lesion: LIVER: HEPATOCELLULAR CARCINOMA, Dose [Carcinogen]: 0.2 MG ON D 1 AND 7 AFTER BIRTH THEN 0.4 MG ON D 14 AND 21
  tumour outcome (control, treated, inhibition, significance): 7/24 (29%), 0/24 (0%), 100%, p<0.005
Carcinogen: SAFROLE, 94-59-7, 0.5 ML 1/WK FOR 1 YR BEGINNING POST CARCINOGEN TREATMENT (STUDY DURATION: 24 MO), Route [Inhibitor]: GAVAGE, Species: MOUSE, Strain/Sex: SWISS/MALE, Target Tissue: Type of Lesion: LUNG: PAPILLARY ADENOCARCINOMA, Dose [Carcinogen]: 0.2 MG ON D 1 AND 7 AFTER BIRTH THEN 0.4 MG ON D 14 AND 21
  tumour outcome (control, treated, inhibition, significance): 5/24 (21%), 1/24 (4%), 81%, not calculated
Carcinogen: SAFROLE, 94-59-7, 0.5 ML 1/WK FOR 1 YR BEGINNING POST CARCINOGEN TREATMENT (STUDY DURATION: 24 MO), Route [Inhibitor]: GAVAGE, Species: MOUSE, Strain/Sex: SWISS/MALE, Target Tissue: Type of Lesion: SKIN: SARCOMA, Dose [Carcinogen]: 0.2 MG ON D 1 AND 7 AFTER BIRTH THEN 0.4 MG ON D 14 AND 21
  tumour outcome (control, treated, inhibition, significance): 2/24 (8%), 0/24 (0%), 100%, not calculated
Carcinogen: SAFROLE, 94-59-7, 0.5 ML 1/WK FOR 1 YR BEGINNING POST CARCINOGEN TREATMENT (STUDY DURATION: 24 MO), Route [Inhibitor]: GAVAGE, Species: MOUSE, Strain/Sex: SWISS/MALE, Target Tissue: Type of Lesion: SPLEEN: LYMPHOMA, Dose [Carcinogen]: 0.2 MG ON D 1 AND 7 AFTER BIRTH THEN 0.4 MG ON D 14 AND 21
  tumour outcome (control, treated, inhibition, significance): 6/24 (25%), 1/24 (4%), 84%, not calculated
Carcinogen: SAFROLE, 94-59-7, 0.5 ML 1/WK FOR 1 YR BEGINNING POST CARCINOMA TREATMENT (STUDY DURATION: 24 MO), Route [Inhibitor]: GAVAGE, Species: MOUSE, Strain/Sex: SWISS/FEMALE, Target Tissue: Type of Lesion: SPLEEN: LYMPHOMA, Dose [Carcinogen]: 0.2 MG ON D 1 AND 7 AFTER BIRTH THEN 0.4 MG ON D 14 AND 21
  tumour outcome (control, treated, inhibition, significance): 9/18 (50%), 2/19 (11%), 78%, not calculated
Carcinogen: TANNIC ACID, 1401-55-4, 0.5 ML 1/WK FOR 1 YR BEGINNING POST CARCINOGEN TREATMENT (STUDY DURATION: 24 MO), Route [Inhibitor]: GAVAGE, Species: MOUSE, Strain/Sex: SWISS/FEMALE, Target Tissue: Type of Lesion: LUNG: PAPILLARY ADENOCARCINOMA, Dose [Carcinogen]: 25 MG/KG BW ON D 1, 7, 14 AND 21 AFTER BIRTH
  tumour outcome (control, treated, inhibition, significance): 2/8 (25%), 0/9 (0%), 100%, not calculated
Carcinogen: TANNIC ACID, 1401-55-4, 0.5 ML 1/WK FOR 1 YR BEGINNING POST CARCINOGEN TREATMENT (STUDY DURATION: 24 MO), Route [Inhibitor]: GAVAGE, Species: MOUSE, Strain/Sex: SWISS/FEMALE, Target Tissue: Type of Lesion: SPLEEN: LYMPHOMA, Dose [Carcinogen]: 25 MG/KG BW ON D 1, 7, 14 AND 21 AFTER BIRTH
  tumour outcome (control, treated, inhibition, significance): 4/8 (50%), 3/9 (33%), 34%, not calculated
Carcinogen: TANNIC ACID, 1401-55-4, 0.5 ML 1/WK FOR 1 YR BEGINNING POST CARCINOGEN TREATMENT (STUDY DURATION: 24 MO), Route [Inhibitor]: GAVAGE, Species: MOUSE, Strain/Sex: SWISS/MALE, Target Tissue: Type of Lesion: LUNG: PAPILLARY ADENOCARCINOMA, Dose [Carcinogen]: 25 MG/KG BW ON D 1, 7, 14 AND 21 AFTER BIRTH
  tumour outcome (control, treated, inhibition, significance): 3/12 (25%), 0/12 (0%), 100%, not calculated
Carcinogen: TANNIC ACID, 1401-55-4, 0.5 ML 1/WK FOR 1 YR BEGINNING POST CARCINOGEN TREATMENT (STUDY DURATION: 24 MO), Route [Inhibitor]: GAVAGE, Species: MOUSE, Strain/Sex: SWISS/MALE, Target Tissue: Type of Lesion: SPLEEN: LYMPHOMA, Dose [Carcinogen]: 25 MG/KG BW ON D 1, 7, 14 AND 21 AFTER BIRTH
  tumour outcome (control, treated, inhibition, significance): 5/12 (42%), 3/12 (25%), 40%, not calculated
